Literature values in patent US20030003013A1, “Disinfectant composition and method for disinfecting and/or sterilising a dental unit” ([…].p.A., priority 2001, published 2003).

Test system: bacteria and spores on a surface / water line of a dental unit

SMILES: O=CCCCC=O [glutaraldehyde]
- contact time to reach the sporicidal level required to achieve sterility (glutaraldehyde): five
- contact time for high-level disinfection (glutaraldehyde left in contact with a surface before flushing out): twenty to thirty
- contact time to disinfect a surface (glutaraldehyde left in contact with the surface before flushing out): approximately five
